This passage reports inhibition of growth results from ChEMBL document CHEMBL3045156, “Synthesis and fungicidal evaluation of 2-arylphenyl ether-3-(1H-1,2,4-triazol-1-yl)propan-2-ol derivatives” (2009).

Common to all, as to type: functional
Holding throughout (details): read-out: GI

The subject of assay [1] is Fusarium oxysporum. The assay is described as follows: Fungicidal activity against Fusarium oxysporum assessed as growth inhibition at 50 ug/mL.
Assay [2] deals with Botryosphaeria berengeriana. Nature of the assay: Fungicidal activity against Botryosphaeria berengeriana assessed as growth inhibition at 50 ug/mL.
Assay [3] has as its system Mycosphaerella arachidis. Nature of the assay: Fungicidal activity against Mycosphaerella arachidis assessed as growth inhibition at 50 ug/mL.
The subject of assay [4] is Alternaria solani. Nature of the assay: Fungicidal activity against Alternaria solani assessed as growth inhibition at 50 ug/mL.
The subject of assay [5] is Fusarium graminearum. The assay is described as follows: Fungicidal activity against Fusarium graminearum assessed as growth inhibition at 50 ug/mL.
The test system of assay [6] is Fusarium oxysporum. Nature of the assay: Fungicidal activity against Fusarium oxysporum assessed as growth inhibition at 1 ug/mL.
Assay [7] has as its system Botryosphaeria berengeriana. Nature of the assay: Fungicidal activity against Botryosphaeria berengeriana assessed as growth inhibition at 1 ug/mL.
Assay [8] deals with Mycosphaerella arachidis. Nature of the assay: Fungicidal activity against Mycosphaerella arachidis assessed as growth inhibition at 1 ug/mL.
The subject of assay [9] is Alternaria solani. The assay is described as follows: Fungicidal activity against Alternaria solani assessed as growth inhibition at 1 ug/mL.
Assay [10] has as its system Fusarium graminearum. The assay is described as follows: Fungicidal activity against Fusarium graminearum assessed as growth inhibition at 1 ug/mL.

Consider `OC(Cn1ccnc1)(Cn1cncn1)c1ccc(Oc2ccc(F)cc2)cc1Cl` (stereo not given), for which the inhibition of growth at 50 µg/mL with Fusarium oxysporum [1] came out at 57.1%; in assay [2] it was 87.9%; in the assay on Mycosphaerella arachidis [3], 100%; in the assay on Alternaria solani [4] it was 73.2%; in the assay on Fusarium graminearum [5], 84.3%.

With `OCC(O)(Cn1cncn1)c1ccc(Oc2ccc(Cl)cc2)cc1Cl` (stereo not given), the inhibition of growth at 50 µg/mL amounted to 77.1% with Fusarium oxysporum [1]; 99% in assay [2]; 100% in the assay with Mycosphaerella arachidis [3]; 99% in the assay on Alternaria solani [4]; 99% in the assay on Fusarium graminearum [5].

In the case of `OC(/C=C/c1ccc(Cl)c(Cl)c1)(Cn1cncn1)c1ccc(Oc2ccc(Cl)cc2)cc1Cl` (stereo not given), the inhibition of growth at 50 µg/mL in the assay with Fusarium oxysporum [1] is 57.1%; in assay [2], 64.6%; with Mycosphaerella arachidis [3], 100%; with Alternaria solani [4], 66.7%; in the assay on Fusarium graminearum [5], 53.6%.

In the case of `OC(/C=C/c1c(Cl)cccc1Cl)(Cn1cncn1)c1ccc(Oc2ccc(Cl)cc2)cc1Cl` (stereo not given), the inhibition of growth at 50 µg/mL amounted to 51.8% in the assay with Fusarium oxysporum [1]; 79.3% in [2]; 92.4% in the assay on Mycosphaerella arachidis [3]; 60.7% in the assay with Alternaria solani [4]; 50.3% with Fusarium graminearum [5].

Regarding `OC(Cn1ccnc1)(Cn1cncn1)c1ccc(Oc2ccc(Cl)cc2)cc1Cl` (stereo not given), the inhibition of growth at 50 µg/mL in the assay on Fusarium oxysporum [1] amounted to 95%; in assay [2] it was 99%; with Mycosphaerella arachidis [3] it was 100%; in the assay on Alternaria solani [4], 99%; in the assay on Fusarium graminearum [5] it was 71.4%.

`OC(/C=C/c1ccc(Cl)cc1)(Cn1cncn1)c1ccc(Oc2ccc(Cl)cc2)cc1Cl` (stereo not given): the inhibition of growth at 50 µg/mL in the assay on Fusarium oxysporum [1] is 57.1%; in [2] it was 64.1%; in the assay on Mycosphaerella arachidis [3], 95%; with Alternaria solani [4], 76.8%; in the assay on Fusarium graminearum [5], 77.2%.

With `COCC(O)(Cn1cncn1)c1ccc(Oc2ccc(F)cc2)cc1Cl` (stereo not given), the inhibition of growth at 1 µg/mL in the assay on Fusarium oxysporum [6] amounted to 82.7%; in assay [7] it was 89.5%; in the assay with Mycosphaerella arachidis [8] it was 76.2%; in the assay on Alternaria solani [9], 96.9%; in the assay with Fusarium graminearum [10] it was 57.2%. Moreover, the inhibition of growth at 50 µg/mL (with Fusarium oxysporum [1]; in [2]; with Mycosphaerella arachidis [3]; in the assay on Alternaria solani [4]; in the assay with Fusarium graminearum [5]) was 100% throughout.

For the molecule `OC(/C=C/c1ccccc1)(Cn1cncn1)c1ccc(Oc2ccc(Cl)cc2)cc1Cl` (stereo not given), the inhibition of growth at 50 µg/mL in the assay on Fusarium oxysporum [1] was found to be 68.7%; in [2], 67.9%; with Mycosphaerella arachidis [3], 100%; in the assay with Alternaria solani [4] it was 81.2%; in the assay with Fusarium graminearum [5], 64.3%.

As to `COCC(O)(Cn1cncn1)c1ccc(Oc2ccc(Cl)cc2)cc1Cl` (stereo not given), the inhibition of growth at 1 µg/mL stood at 89.9% in the assay with Fusarium oxysporum [6]; 99.2% in assay [7]; 78.6% with Mycosphaerella arachidis [8]; 98.7% in the assay on Alternaria solani [9]; 63.2% with Fusarium graminearum [10]. Besides, the inhibition of growth at 50 µg/mL in the assay on Fusarium oxysporum [1] is 100%; in assay [2] it was 100%; with Mycosphaerella arachidis [3], 99.1%; in the assay on Alternaria solani [4], 100%; with Fusarium graminearum [5], 98.7%.

As for `OCCNCC(O)(Cn1cncn1)c1ccc(Oc2ccc(Cl)cc2)cc1Cl` (stereo not given), the inhibition of growth at 50 µg/mL in the assay on Fusarium oxysporum [1] amounted to 100%; in [2], 97.7%; in the assay with Mycosphaerella arachidis [3] it was 72.2%; with Alternaria solani [4] it was 98.5%; in the assay on Fusarium graminearum [5], 37.3%.

Consider `OC(/C=C/c1ccc(Cl)cc1Cl)(Cn1cncn1)c1ccc(Oc2ccc(Cl)cc2)cc1Cl` (stereo not given), for which the inhibition of growth at 50 µg/mL in the assay with Fusarium oxysporum [1] was 50.9%; in [2], 58.7%; in the assay with Mycosphaerella arachidis [3], 97.8%; in the assay on Alternaria solani [4] it was 54.4%; with Fusarium graminearum [5] it was 37.2%.

On to `CSCC(O)(Cn1cncn1)c1ccc(Oc2ccc(Cl)cc2)cc1Cl` (stereo not given), for which the inhibition of growth at 50 µg/mL with Fusarium oxysporum [1] worked out at 78.9%; in assay [2] it was 100%; in the assay with Mycosphaerella arachidis [3] it was 82.4%; in the assay on Alternaria solani [4], 83.7%; with Fusarium graminearum [5], 37.2%.

For `OC(Cn1cncn1)(Cn1nnc2ccccc21)c1ccc(Oc2ccc(Cl)cc2)cc1Cl` (stereo not given), the inhibition of growth at 50 µg/mL was found to be 48.7% with Fusarium oxysporum [1]; 55.6% in assay [2]; 62.7% with Mycosphaerella arachidis [3]; 53.3% in the assay with Alternaria solani [4]; 45.4% in the assay with Fusarium graminearum [5].

Consider `OC(CN1CCOCC1)(Cn1cncn1)c1ccc(Oc2ccc(Cl)cc2)cc1Cl` (stereo not given), for which the inhibition of growth at 50 µg/mL with Fusarium oxysporum [1] was 34.4%; in assay [2] it was 65.2%; in the assay with Mycosphaerella arachidis [3], 60%; with Alternaria solani [4], 55.2%; in the assay with Fusarium graminearum [5], 78.3%.

Turning to `Cc1ccc(/C=C/C(O)(Cn2cncn2)c2ccc(Oc3ccc(Cl)cc3)cc2Cl)cc1` (stereo not given), the inhibition of growth at 50 µg/mL in the assay with Fusarium oxysporum [1] was found to be 60.2%; in assay [2] it was 59.3%; with Mycosphaerella arachidis [3] it was 95%; in the assay on Alternaria solani [4], 63.2%; in the assay on Fusarium graminearum [5], 51.8%.

`CCNCC(O)(Cn1cncn1)c1ccc(Oc2ccc(Cl)cc2)cc1Cl` (stereo not given): the inhibition of growth at 50 µg/mL is 86.9% in the assay on Fusarium oxysporum [1]; 75.4% in assay [2]; 61.4% in the assay with Mycosphaerella arachidis [3]; 63.8% in the assay on Alternaria solani [4]; 56.8% in the assay on Fusarium graminearum [5].

For `COc1ccc(/C=C/C(O)(Cn2cncn2)c2ccc(Oc3ccc(Cl)cc3)cc2Cl)cc1` (stereo not given), the inhibition of growth at 50 µg/mL in the assay with Fusarium oxysporum [1] was 55.4%; in [2], 64.5%; in the assay with Mycosphaerella arachidis [3] it was 91.3%; with Alternaria solani [4], 55%; in the assay on Fusarium graminearum [5], 61.4%.

Regarding `OC(CNC1CCCCC1)(Cn1cncn1)c1ccc(Oc2ccc(Cl)cc2)cc1Cl` (stereo not given), the inhibition of growth at 50 µg/mL with Fusarium oxysporum [1] came to 78.9%; in assay [2], 100%; in the assay with Mycosphaerella arachidis [3], 75.2%; in the assay with Alternaria solani [4], 87.3%; in the assay on Fusarium graminearum [5], 47.5%.

On to `OC(/C=C/c1ccccc1F)(Cn1cncn1)c1ccc(Oc2ccc(Cl)cc2)cc1Cl` (stereo not given), for which the inhibition of growth at 50 µg/mL was 65.9% in the assay with Fusarium oxysporum [1]; 52.1% in assay [2]; 99.3% in the assay with Mycosphaerella arachidis [3]; 55% with Alternaria solani [4]; 61.4% in the assay on Fusarium graminearum [5].

With `CC(O)(Cn1cncn1)c1ccc(Oc2ccc(Cl)cc2)cc1Cl` (stereo not given), the inhibition of growth at 50 µg/mL with Fusarium oxysporum [1] turned out to be 85.3%; in assay [2] it was 100%; with Mycosphaerella arachidis [3], 100%; in the assay with Alternaria solani [4] it was 78.2%; in the assay with Fusarium graminearum [5], 100%.
